The results in this text go back to US20260092085A1, “SYNTHETIC TRIPLEX PEPTIDE NUCLEIC ACID-BASED INHIBITORS FOR CANCER THERAPY” (University of Connecticut, priority 2022, published 2026).

The subject of this data set is miR-155 downstream genes. Kind of data set: Downstream gene expression and protein levels in U2932 tumor samples. It counts as in vivo, NSG mice. The following applies: U2932 xenograft. Here is the method: FIGS. 22A-D show in vivo gene expression and protein level analysis. (22A) miR-155 gene expression levels in U2932 tumor samples after in vivo treatment with indicated PNAs. Data was normalized with average control U6 (n=4, data represented as mean±standard error mean). ***p<0.001 (22B) Gene expression level of downstream target genes of miR-155: MCL1 in U2932 tumor samples after treatment with total 3 mg kg-1 dose of Scr-γtcPNA-155, PNA-155, γPNA-155 and γtcPNA-155 and normalized with average control GAPDH (n=3, data represented as mean±SEM), unpaired two-tailed t-test was performed for analysis). *p<0.05, **p<0.01 (22C) Representative western blot of Mcl-1 protein and its quantification (n=3 technical replicate) in U2932 tumor samples treated with total 3 mg kg-1 dose of Scr-γtcPNA-155, PNA-155 and γtcPNA-155. Data is represented as mean±SEM and unpaired two-tailed t-test was performed for analysis. *p<0.05. The relative protein levels were determined from the band intensity using ImageJ software and normalized relative to loading control and treatment control. (22D) Gene expression level of tumor suppressor proteins (FOXO3A, CUX1, SOCS1, CSF1R, JARID2, SHIP1, PICALM, PDCD4, BACH1, CASP3) in U2932 tumor samples after treatment with total 3 mg kg-1 dose of Scr-γtcPNA-155, PNA-155, γPNA-155 and γtcPNA-155 and normalized with average control GAPDH (n=3, data represented as mean±SEM, unpaired two-tailed t-test was performed for statistical analysis). *p<0.05, **p<0.01.
Data is represented as mean±SEM and unpaired t-test was used for statistical analysis *p<0.05. The relative protein levels were determined from the band intensity using ImageJ software and normalized relative to loading control and treatment control.
Data is represented as mean±SEM and unpaired t-test was used for statistical analysis.
Data is represented as mean±SEM and unpaired t-test was used for statistical analysis. The relative protein levels were determined from the band intensity using ImageJ software and normalized relative to loading control and treatment control.
RNA and Protein extraction from tumor samples: The mice were injected intra-tumorally with 1 mg kg-1 dose of PNA-155, γtcPNA-155, γPNA-155, Scr-γtcPNA-155 or were untreated. The injections were repeated two additional times after 1 week each. The length, breadth, and depth of the tumors were measured daily using a vernier caliper. The mice were euthanized when the tumor volumes reached 2000 mm^3. The resected tumor sections were finely minced using a sterile blade and suspended in dissociation media (4 ml) comprising of RPMI-1640, 1.2 mg/ml dispase, and 0.5 mg/ml collagenase for 90 mins at 500 rpm at 37° C. The dissociated tumors were washed with buffer saline at 2500 rpm (4 mins) at 4° C. and then suspended in 0.25% trypsin for 4 mins at room temperature. RPMI 1640 media was added to the trypsinized tumor mass, and the cells were passed through a 70 um filter. The cells were centrifuged at 2500 rpm for 4 mins at 4° C. The cell pellet was then suspended in 1×RBC lysis buffer (Sigma) and incubated on ice for 10 mins. PBS was added to the cells and the cells were passed through a 40 um filter. The cells were centrifuged at 2500 rpm for 4 mins at 4° C. The cell pellet was resuspended in 0.5% BSA in PBS. The mouse cells were removed from the tumor cells using a mouse cell depletion kit (Miltenyi Biotec) according to the manufacturer's protocol. The enriched tumor cells from each tumor sample were divided into two fractions. RNA for gene expression analysis was extracted from one tumor fraction by the same procedure as mentioned earlier. The protein for western blot analysis was extracted from the second fraction using the method described above.

For the substance “γtcPNA-155: serine gamma tail-clamp anti-miR-155 PNA, RR-TJJJJ-OOO-ACCCCTATCACGATTAGCATTAA-RR, SEQ ID NO: 3 (all peptide nucleic acid (PNA); serine gamma PNA, tail-clamp TJJJJ via linkers, Arg-Arg at both ends)”, the “upregulation of tumor suppressor genes in tumors” value (intratumoral) is on record as “significant upregulation”. Besides, the “decrease in MCL1 mRNA levels in tumors” value (total 3 mg kg-1, compared to PNA-155 treated group) is recorded as about 50%. For the same substance, the “increase in Caspase-3 protein levels in tumors” value (versus Scr-γtcPNA-155-treated tumors) is given as 23%. Moreover, the “Mcl-1 protein level in tumors” value (western blot) is “reduction in the protein levels”.
